The source of these data is patent US20230167108A1, “CRYSTAL OF IMIDAZOPYRIDINONE COMPOUND OR SALT THEREOF” (Kissei Pharmaceutical Co., Ltd., priority 2020, published 2023).

For data set [1], the system named is TNBS induced colitis model rat. The experiment in a line: Therapeutic effect in colitis model (suppression of intestinal permeability of FITC). The note with it: 3 mg/kg orally once a day for 3 days, serum FITC, mean. Type of data set: in vivo. How it is done: Test Example 2 Therapeutic Effect in Colitis Model
(1) TNBS Induced Colitis Model Rat
Thus, the suppressive effect on the intestinal permeability based on oral administration of the test compound was evaluated as an indicator of medicinal efficacy.
SD male rats: 8-week-old SIX (Japan SLC) were used, Under pentobarbital anesthesia, 300 μL of 28 mg/mL TNBS which was adjusted with 50% ethanol was administered at a point 8 cm from the anus in the large intestine to cause inflammation. To the solvent-treated group was administrated 300 μL of 50% ethanol. Animals were fasted for 48 hours prior to administration of TNBS. The test compound (3 mg/kg) prepared with 0.05% methylcellulose solution was orally administered once a day from the next day, and it was administered for a total of 3 days. After administering for 3 clays, 50 mg/kg FITC was orally administered 4 hours after the administration of the test compound. Blood samples were collected from jugular vein under isoflurane anesthesia after 4 hours. The serum was centrifuged, and fluorescence intensity was detected by PHERAstar FSX (BMG Labtech) to measure the concentration of FITC permeating into circulating blood through the mesentery. The suppressive rate on the intestinal permeability of the test compound was calculated based on the value of the test substance-free group as 0 and the value of the TNBS-untreated group as 100.

Data set [2] in a line: Rat PK study: concentration of compound in large intestine tissue and plasma. As to conditions: 3 mg/kg oral, non-fasted SD rats. It counts as in vivo. How it is done: Test Example 3 Concentration of Compound in Large Intestine Tissue
The test compound (3 mg/kg/5 mL) prepared with 0.05% methylcellulose was orally administered to non-fasted rats (SD, 8-week-old, male, T SLC). Blood samples were collected from jugular vein 0.25, 0.5, 1, 2, 4, 6 and […] hours after the administration. Laparotomy was performed under isoflurane anesthesia, and the large intestine was isolated. The collected distal large intestine (about 5 cm) was cut open, and then the large intestine extracted was washed with saline on a dish. After washing, the large intestine was minced with small scissors. About 150 mg thereof was moved to a tube. To the tube was added 100 μL of saline, and the mixture was homogenized using shake master (1000 rpm×30 minutes). Samples were prepared by the addition with quadruple volume of saline as the final volume. The concentrations of the test compound in the large intestine tissue and the plasma were measured through a quantitative analysis using liquid chromatography-mass spectrometry (LC/MS).
Cmax: maximum plasma concentration of the test compound in the case of oral administration (ng/mL) AUC: area under the plasma test compound concentration-time curve (ng*min/mL) Plasma: plasma test compound concentration after 8 hours (ng/mL) Colon: concentration of the test compound in the large intestine tissue after hours (ng/g) C/P: ratio of the above Colon and Plasma

The next data set addresses T1, human PHD2184-418 (Homo sapiens, UniProt Q9GZT9).
T1 construct: containing amino acid residues 184 to 418 of the protein represented by CAC42509; histidine tag (N); made in house; host or cells: E. coli BL21 (DE3), pET-30a (+) vector
Put plainly: PHD2 inhibitory test (fluorescence polarization, FITC-labeled HIF-1α556-574). Type of data set: binding. As to conditions: 2 μM 2-oxoglutarate, 37° C. for 60 minutes. The method, then: Test Example 1 PHD2 Inhibitory Test
(1) Expression and Preparation of Human […]
Human PHD2184-418 is containing amino acid residues 184 to 418 of the protein represented by CAC42509 (GenBank accession ID) was expressed and prepared by the following method.
An expression construct of human PHD2184-418 containing an N-terminal histidine tag was introduced into pET-30a (+) vector, and the sequence was confirmed. This vector was introduced into BL21 (DE3) strain and cultured at 37° C. in LB medium containing antibiotics. After culturing, a cell lysis solution was added to the cells, and then the cells were disrupted and suspended by sonication. The disrupted suspension was centrifuged, and the supernatant was purified by Ni column to give human PHD2184-418.
Human HIF-1α556-574 (FITC-labeled HIF-1α556-574), containing FITC-Ahx at the N-terminal of HIF-1α556-574 containing amino acid residues 556 to 574 (partial peptide) of human HIF-1α, was used as a substrate. Using FITC-labeled HIF-1α556-574, the competitive inhibition between 2-oxoglutarate and the test compound ([…]) was evaluated based on the change in fluorescence polarization of FITC-labeled HIF-1α556-574 by the following method.
An enzyme (human PHD2184-418) and the substrate were diluted with an assay buffer (pH 7.4) containing 10 mM HEPES, 150 mM NaCl, 10 μM MnCl2-4H2O, 2 μM 2-oxoglutarate and 0.05% Tween-20. […]

Data set [3] in a line: Solid stability test (physicochemical and chemical stability of crystals). The note with it: open condition at 40° C., 1 month; for Amount of the mass change of the compound 1: HPLC area normalization; for Properties: appearance; for Crystal form change: powder X-ray diffraction. The source says:
Test Example 4: Solid Stability Test
The physicochemical stability and chemical stability for the crystals of the compound 1 (crystal forms I to III), the crystals of the methanesulfonic acid salt of the compound 1 (crystal forms I, II and IV), the crystals of the hydrochloride (crystal forms I and III), the crystal form I of the p-toluenesulfonic acid salt, the crystal form I of the sodium salt and the crystal form I of the calcium salt were examined.
Physicochemical stability: Each crystal was stored under open condition at 40° C. The powder X-ray diffraction of the sample was measured at the initial point and 1 month later, and the change in crystal form Was confirmed. The change in properties was also observed at the same time. Chemical stability: Each crystal was stored under open condition at 40° C. The mass of the compound 1 in the sample was measured under the following HPLC measurement conditions at the initial point and 1 month later.
Detector: Ultraviolet and visible absorptiometer/wavelength: 225 nm
Column: L-column 2 ODS, 3 μm, 4.6×150 mm (Chemicals Evaluation and Research Institute)
Column temperature: Constant temperature around 40° C. Flow rate: 1.0 mL/min Mobile phase A: Potassium dihydrogenphosphate and dipotassium hydrogenphosphate aqueous solution adjusted to 10 mmol/L with water Mobile phase B: Acetonitrile Mobile phase ratios: 0 to 30 minutes: mobile phase A/mobile phase B=88/12 30 to 50 minutes: mobile phase A/mobile phase B=88/12 to 25/75 50 to 55 minutes: mobile phase A/mobile phase B=25/75 55 to 55.01 minutes: mobile phase A/mobile phase B=25/75 to 88/12 55.01 to 75 minutes: mobile phase Airmobile phase B=88/12 Amount of injection: 5 μL Sample cooler: 4° C. Dissolution solvent: Mixed solution (mobile phase A/acetonitrile=75/25) Sample solution: Sample was dissolved in dissolution solvent and adjusted to about 1 mg/mL
Excluding the peaks derived from the blank, the peak areas of the compound 1 and an analogous substance were measured by automatic integration, and the mass of the compound 1 was calculated by area normalization method. Further, the amount of the mass change of the compound 1 after the storage was calculated.

T1 sequence (Q9GZT9 184-418): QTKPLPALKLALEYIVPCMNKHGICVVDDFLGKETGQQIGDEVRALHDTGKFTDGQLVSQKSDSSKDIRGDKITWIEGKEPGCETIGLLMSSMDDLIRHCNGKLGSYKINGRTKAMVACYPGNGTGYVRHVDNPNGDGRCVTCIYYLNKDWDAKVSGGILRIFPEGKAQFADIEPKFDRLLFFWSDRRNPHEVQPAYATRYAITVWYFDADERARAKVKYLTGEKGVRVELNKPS

A word on the IC50: it is the concentration at which inhibition is half-maximal. Consider `Cn1c(C(=O)O)cnc1CN1CC[C@H](n2c(=O)n(-c3ccc(-c4ccc(C(=O)O)cc4)nc3)c3cccnc32)C1` [Compound 1, 2-{[(3S)-3-{1-[6-(4-Carboxyphenyl)pyridin-3-yl]-2-oxo-2,3-dihydro-1H-imidazo[4,5-b]pyridin-3-yl}pyrrolidin-1-yl]methyl}-1-methyl-1H-imidazole-5-carboxylic Acid], for which the “Inhibition (%): suppressive rate on the intestinal permeability” value in data set [1] was 101%; in data set [1] (listed as compound 1), “suppressed”. The “C/P: ratio of Colon and Plasma” value in data set [2] is recorded as “higher concentration in the large intestine tissue than the concentration in the plasma”. The “Colon: concentration of the test compound in the large intestine tissue” value in data set [2] (distal large intestine) is 164 ng/g. The Kp in data set [2] (male, rat, large intestine tissue / plasma, read-out: C/P: ratio of Colon and Plasma) is over 164. In addition, the concentration at 8 h in data set [2] (male, rat, plasma, 8 hours, read-out: Plasma: plasma test compound concentration after 8 hours) is under 1 ng/mL. The AUC in data set [2] (male, rat, plasma, read-out: AUC: area under the plasma test compound concentration-time curve (converted)) was 1.95 ng·h/mL. The Cmax in data set [2] (male, rat, plasma, read-out: Cmax: maximum plasma concentration of the test compound) came to 1 ng/mL. The “IC50 (human PHD2 binding inhibitory activity)” value on human PHD2184-418 was “inhibited binding between PHD2 and HIF-1α”. In addition, the IC50 at human PHD2184-418 (read-out: IC50 (human PHD2 binding inhibitory activity)) is 180 nM.

On to `Cn1c(C(=O)O)cnc1CN1CC[C@H](n2c(=O)n(-c3ccc(-c4ccc(C(=O)O)cc4)nc3)c3cccnc32)C1` [Crystal form I of the compound 1], for which, in data set [3], the “Amount of the mass change of the compound 1” value is reported as “No change”; the Properties entry is on record as “White powder, no change”; the Crystal form change entry was “No change”.

As for `Cn1c(C(=O)O)cnc1CN1CC[C@H](n2c(=O)n(-c3ccc(-c4ccc(C(=O)O)cc4)nc3)c3cccnc32)C1` [Crystal form II of the compound 1], in data set [3], the “Amount of the mass change of the compound 1” value was −0.03%; the Properties entry was “White powder, no change”; the Crystal form change result is on record as “No change”.

As to `Cn1c(C(=O)O)cnc1CN1CC[C@H](n2c(=O)n(-c3ccc(-c4ccc(C(=O)O)cc4)nc3)c3cccnc32)C1` [Crystal form III of the compound 1], in data set [3], the “Amount of the mass change of the compound 1” value is given as −0.04%; the Properties result was “White powder, no change”; the Crystal form change entry is “No change”.
